Results from publication PMC10603992, “Antimicrobial and Adjuvant Potencies of Di-n-alkyl Substituted Diazalariat Ethers” (Antibiotics, 2023).
Values after ≈ are worked out from the molar mass of the structure shown. Read-outs that look alike come from different tables or passages of the source.

Tests used:
[1] = general value, no reference given; cited from earlier work
S. aureus [2] = experiment: MIC against S. aureus under various pH and media conditions; type: cell-based, Staphylococcus aureus; conditions: for Change in MIC as the pH was increased from 6.4 to 8.4: S. aureus, Mueller Hinton medium
[3] = Turbidimetric solubility limit in MHII or PBS; type: physicochemical; conditions: DMSO ≤0.5%
K12 E. coli = experiment: MIC against K12 E. coli; type: cell-based; conditions: MHII media, 90% growth inhibition, read-out: MIC K12 E. coli
S. aureus 1199B [4] = experiment: Checkerboard combination with norfloxacin; type: cell-based, Staphylococcus aureus
Text: Each of the checkerboard analyses shown in Figure 7 combines one of 1–6 with norfloxacin. S. aureus 1199B is resistant to norfloxacin. By combining varying concentrations of both norfloxacin and a lariat ether or lariat ether derivative, potency enhancement, if any, can be determined. In the graphs (checkerboards) shown, the potency of each concentration combination can be assessed visually.
In both cases, the concentrations varied by a factor of two. Four controls were employed on each checkerboard plate: full growth (only cells), no growth (only media), and then a column for each drug alone to accurately reflect their individual MIC values. The concentrations of amphiphile and antibiotic tested were ½, ¼, ^1/8, ^1/16, and ^1/32 of the MIC. Preparation of the stock solutions and plates was by the same method described in the minimum inhibitory concentration section.

[5] = test system: human embryonic kidney (HEK-293) cells; experiment: Cytotoxicity against HEK-293 cells; type: cell-based; conditions: three independent trials
Text: (§1) The potential toxicity of 1–6 is a critical factor in their application either as an antimicrobial or an adjuvant. In vitro toxicity studies were therefore conducted using human embryonic kidney (HEK-293) and simian kidney (COS-7) cells. The graphs shown in Figure 20 show the percentage survival of each cell type as a function of lariat ether concentration on the logarithmic x-axis. In each graph, the IC50 value is specified for each compound and cell type. The value of IC50 is the concentration of lariat ether that inhibits the growth of 50% of the cells studied.
(§2) The cytotoxicity experiments were conducted as described in [44].

Tet^R E. coli = experiment: MIC against Tet^R E. coli; type: cell-based; conditions: Escherichia coli, read-out: MIC Tet^R E. coli
S. aureus 1199B [6] = experiment: MIC against S. aureus 1199B; type: cell-based, Staphylococcus aureus; conditions: for MIC: Staphylococcus aureus, 1199B, read-out: MIC S. aureus 1199B, MHII media, 90% growth inhibition
DH5α E. coli = experiment: MIC against DH5α E. coli; type: cell-based; conditions: Escherichia coli, read-out: Minimum inhibitory concentration against DH5α E. coli
[7] = biological target: T1, NorA efflux pumps in S. aureus 1199B (Staphylococcus aureus, UniProt P0A0J7); experiment: Efflux pump inhibition (EthBr accumulation); type: cell-based; conditions: 3 at […] µM vs reserpine at 50 µg/mL (80 µM)
T1 construct: Increase in EthBr fluorescence observed by its accumulation in S. aureus 1199B cytosol; endogenous in cells; host or cells: Staphylococcus aureus 1199B (whole bacteria)
Text: An important reason for the choice of S. aureus 1199B for study is that its resistance to norfloxacin is known to result from the presence of the Nor A efflux pump. Efflux pumps require regulated ion balance to function so that exogeneous substances such as antibacterials can effectively be ejected. Ethidium bromide (EthBr) can penetrate bacteria and is detectable by its fluorescence. To the extent that ion homeostasis is disrupted, ion balance is deregulated, and efflux pump function is compromised or inhibited.
Experimental details have been reported in [44].

[8] = test system: simian kidney (COS-7) cells; experiment: Cytotoxicity against COS-7 cells; type: cell-based; conditions: Chlorocebus aethiops, COS-7, percentage survival, three independent trials
Text: as §1, §2

S. aureus [9] = experiment: Membrane depolarization by DiBAC4(3) fluorescence; type: cell-based, Staphylococcus aureus; conditions: compound at ½ MIC
Protocol: Disruption of ion homeostasis by 1–6 should be apparent in the associated membrane depolarization. […] The dye is readily absorbed by bacteria owing to the negative internal potential. Disruption of ion homeostasis will affect both proton and potassium cation regulation. The internalized, self-quenched dye will be released and increased fluorescence will be observed.
Two types of experiments were performed to assess membrane depolarization. […] If ion homeostasis is affected by the presence of any of these compounds, the fluorescent response should increase as the lariat ether concentration increased.
A second series of experiments was performed to determine the relationship of disrupted ion homeostasis, as reflected in membrane depolarization with cellular vitality (Figure 17). […] Alamar blue (see above) was used to determine cell viability. No depolarization was apparent in the S. aureus control in the absence of a lariat ether or lariat ether derivative. Depolarization was greatest for C10LE•MeI (3). […] We note that the MIC values for S. aureus observed for 2, 3, 5, and 6 were similar.
The membrane depolarization study was conducted as described in [48].

S. aureus (1199B) = experiment: Membrane permeability (propidium iodide / alamar blue); type: cell-based, Staphylococcus aureus; conditions: compound at ½ MIC
Protocol: Membrane permeability was assessed by using the dyes propidium iodide and alamar blue. […] However, when PI does enter a cell, it intercalates within the DNA structure. […] When intercalation occurs, a strong fluorescent emission can be detected. Alamar blue, based on resazurin, is a nontoxic weakly fluorescent dye that is sensitive to reduction potential within vital cells. When reduced, it is converted into highly fluorescent resorufin (7-hydroxy-3H-phenoxazin-3-one).
The combination of alamar blue and propidium iodide allowed us to assess the membrane permeability of S. aureus while confirming cellular vitality. Results of the PI/alamar blue studies with S. aureus are summarized in the graph of Figure 5. When S. aureus (1199B) was exposed to the two dyes, penetration of PI was relatively low and cellular vitality remained high. […] In general, cellular penetration and vitality correlated.
Membrane permeability studies were conducted as detailed in [48].

[10] = Dynamic light scattering of C12LE aggregation; type: physicochemical; conditions: for Slope of C12LE aggregation (DLS particle size): water, in the presence of the antimicrobial or C12LE alone
Protocol: It is known that dialkyldiazacrowns form stable aggregates in aqueous solution [57, 62]. It was hypothesized that complexation between antimicrobials and macrocycles would alter or prevent the ability of the complex to form aggregates. […] Indeed, the particle sizes observed when chlortetracycline is present was almost indistinguishable from particle formation by C12LE (4) alone.
Measurements were performed on a Brookhaven Instruments Corp. ZetaPALS instrument at 25 °C using a 660 nm laser and correlating scattering at 90°. Samples were prepared by initially dissolving the amphiphile in filtered DMSO obtained from ThermoFisher. Next, they were diluted into 1× PBS such that DMSO was fixed at 0.5% in 15 mL sterile conical tubes. 10× PBS was obtained commercially, then diluted 10-fold in MQ H2O. The mixture was vortexed and incubated at room temperature for 2 h, then transferred to a clean quartz cuvette and equilibrated in the instrument for 10 min at 25 °C. Ten measurements consisting of 2 min runs were made on each sample. The average effective diameter was calculated with standard error reported for at least three trials.

[11] = Staphylococcus aureus, MH + Ca2+, read-out: MIC S. aureus, MH + Ca^2+
[12] = Homo sapiens, HEK293, percentage survival
[13] = Staphylococcus aureus, pH 6.4, MHII, pH 6.4, read-out: MIC S. aureus, MHII pH 6.4
[14] = Staphylococcus aureus, pH 7.4, MHII, pH 7.4, read-out: MIC S. aureus, MHII pH 7.4
[15] = Staphylococcus aureus, pH 8.4, MHII, pH 8.4, read-out: MIC S. aureus, MHII pH 8.4
[16] = Mueller Hinton II broth, 37 °C, pH 7.3, plasma or biological fluid, kinetic from dmso stock, Mueller Hinton II, pH 7.3, 2 h at 37 °C, read-out: Solubility limit in MHII
[17] = phosphate-buffered saline, 37 °C, aqueous buffer, kinetic from dmso stock, phosphate-buffered saline, 2 h at 37 °C, read-out: Solubility limit in PBS
[18] = no additional antimicrobial, MICs in table limited to […]

T1 sequence (P0A0J7 whole entry): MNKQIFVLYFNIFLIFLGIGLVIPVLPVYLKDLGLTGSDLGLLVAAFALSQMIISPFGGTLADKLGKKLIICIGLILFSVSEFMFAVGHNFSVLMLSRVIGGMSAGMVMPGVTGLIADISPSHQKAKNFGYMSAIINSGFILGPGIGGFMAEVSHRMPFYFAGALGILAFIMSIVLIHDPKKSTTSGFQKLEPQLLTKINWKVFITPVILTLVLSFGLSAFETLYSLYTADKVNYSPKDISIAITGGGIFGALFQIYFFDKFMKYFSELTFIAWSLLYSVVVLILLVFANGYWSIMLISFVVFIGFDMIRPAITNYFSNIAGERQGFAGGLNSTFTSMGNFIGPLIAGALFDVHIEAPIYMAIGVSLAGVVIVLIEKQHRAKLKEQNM

For `CC1(C)S[C@@H]2[C@H](NC(=O)[C@H](N)c3ccccc3)C(=O)N2[C@H]1C(=O)O` [Ampicillin, ampicillin], the “pKa of the carboxyl groups” value [1] is listed as 2.6–2.8.

With `CCCCCCCCCCN1CCOCCOCCN(CCCCCCCCCC)CCOCCOCC1` [C10LE (1), N,N′-Di-n-decyl-4-13-diaza-18-crown-6] the MIC (S. aureus [2]; MH medium, read-out: MIC S. aureus, MH) was 16 µM (≈ 8.69 µg/mL), the MIC (S. aureus [2]; MHII, pH 6.4, read-out: MIC S. aureus, MHII pH 6.4) was 16 µM (≈ 8.69 µg/mL) and the MIC (S. aureus [2]; MHII, pH 7.4, read-out: MIC S. aureus, MHII pH 7.4) was no less than 16 µM. The MIC (S. aureus [2]; MHII, pH 8.4, read-out: MIC S. aureus, MHII pH 8.4) was 32 µM (≈ 17.4 µg/mL), the “Change in MIC as the pH was increased from 6.4 to 8.4” value (“Change in MIC as the pH was increased” for short) (S. aureus [2]) was “changes in MIC were observed” and the MIC (S. aureus [2]; [11]) was 16 µM. The solubility at 2 h ([3]; Mueller Hinton II, pH 7.3, 2 h at 37 °C, read-out: Solubility limit in MHII) was no less than 128 µM, the solubility at 2 h ([3]; phosphate-buffered saline, 2 h at 37 °C, read-out: Solubility limit in PBS) was no less than 128 µM and the MIC (K12 E. coli) was 10 µM (≈ 5.43 µg/mL). For the same compound, the “Norfloxacin concentration required to effect 90% growth inhibition” value (S. aureus 1199B [4]; lariat ether co-administered at 2 µM) was 0.5 µM, the “Fold increase in the potency of norfloxacin” value (S. aureus 1199B [4]; norfloxacin-resistant S. aureus 1199B, checkerboard) was 128 fold and the IC50 [5, 12] was 13 µM. For the same compound, the IC50 ([5]; percentage survival) was no more than 10 µM, the MIC (Tet^R E. coli) was 8 µM (≈ 4.34 µg/mL) and the “MIC S. aureus 1199B” value (S. aureus 1199B [6]; MHII media, 90% growth inhibition) was 8 µM (≈ 4.34 µg/mL). It also gave an MIC (DH5α E. coli) of 11 µM (≈ 5.97 µg/mL).

For `CCCCCCCCCC[N+]1(C)CCOCCOCC[N+](C)(CCCCCCCCCC)CCOCCOCC1` (stereo not shown) [C10LE•2MeI (3), N,N′-Di-n-decyl-4-13-diaza-18-crown-6 bis(methiodide)], the “Change in MIC as the pH was increased” value (S. aureus [2]) was “unchanged”, the MIC (S. aureus [2]; [11]) was 16 µM and the MIC (S. aureus [2]; Staphylococcus aureus, MH medium, read-out: MIC S. aureus, MH) was 2 µM. For the same compound, the MIC (S. aureus [2]; [13]) was 2 µM, the MIC (S. aureus [2]; [14]) was 2 µM and the MIC (S. aureus [2]; [15]) was 2 µM. It also gave a solubility at 2 h [3, 16] of 64 µM, a solubility at 2 h [3, 17] of no less than 128 µM and an MIC (K12 E. coli; Escherichia coli) of 16 µM. The “Potency as efflux pump inhibitor relative to reserpine” value [7] was “approximately five times more potent”, the IC50 [8] was 53 µM and the IC50 [5, 12] was 36 µM. For the same compound, the MIC (Tet^R E. coli) was 32 µM, the “Membrane depolarization (DiBAC4(3) fluorescence)” value (S. aureus [9]) was “greatest” and the MIC (S. aureus 1199B [6]) was 1 to 2 µM. The “PI penetration (membrane permeability)” value (S. aureus (1199B)) was “good penetration” and the MIC (DH5α E. coli; [18]) was 24 µM.

In the case of `CCCCCCCCCCCC[N+]1(C)CCOCCOCC[N+](C)(CCCCCCCCCCCC)CCOCCOCC1` (stereo not shown) [C12LE•2MeI (6), N,N′-Di-n-dodecyl-4-13-diaza-18-crown-6 bis(methiodide)], the “Change in MIC as the pH was increased” value (S. aureus [2]) is reported as “unchanged”, the MIC (S. aureus [2]; [13]) is reported as 2 µM and the MIC (S. aureus [2]; [14]) is reported as 2 µM. It also gave an MIC (S. aureus [2]; [15]) of 2 µM, a solubility at 2 h [3, 16] of 1 to 2 µM and a solubility at 2 h [3, 17] of no less than 128 µM. For the same compound, the MIC (K12 E. coli; Escherichia coli) was 4 µM, the IC50 [8] was 25 µM and the IC50 [5, 12] was 11 µM. It also gave an IC50 ([5]; percentage survival) of no more than 10 µM, an MIC (Tet^R E. coli) of 16 µM and an MIC (S. aureus 1199B [6]) of 1 µM. The “PI penetration (membrane permeability)” value (S. aureus (1199B)) was “level of PI penetration similar to that observed for S. aureus alone” and the MIC (DH5α E. coli; [18]) was 2 µM.

In the case of `CO/N=C(\C(=O)N[C@@H]1C(=O)N2C(C(=O)[O-])=C(C[N+]3(C)CCCC3)CS[C@H]12)c1csc(N)n1` [Cefepime, cefepime], the “Slope of C12LE aggregation (DLS particle size)” value (from here on “Slope of C12LE aggregation”) [10] is reported as 3.2.

In the case of `O=C(O)c1cn(C2CC2)c2cc(N3CCNCC3)c(F)cc2c1=O` [Ciprofloxacin, ciprofloxacin], the “Slope relative to the particle size profile of C12LE alone” value ([10]; DLS) is reported as “about 60%” and the “Slope of C12LE aggregation” value [10] is reported as 1.8.

In the case of `NC[C@H]1O[C@H](O[C@H]2[C@H](O)[C@@H](O[C@H]3O[C@H](CO)[C@@H](O)[C@H](N)[C@H]3O)[C@H](N)C[C@@H]2N)[C@H](O)[C@@H](O)[C@@H]1O` [Kanamycin, kanamycin], the “Slope of C12LE aggregation” value [10] is reported as 2.5.
